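Assay format: 96-well plates, 48-hour exposure. GI50 is the concentration that inhibits growth by half.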 The source made the active and inactive calls. Rule as the data show it: active = GI50 up to about 1.1 µM and inactive = higher.
What was measured:
Experiment in all cases: NCI tumour cell line growth inhibition, 48 h
SNB-75 = test system: SNB-75
SK-MEL-28 = test system: SK-MEL-28
ACHN = test system: ACHN
CAKI-1 = test system: CAKI-1
MDA-MB-435 = test system: MDA-MB-435
HOP-62 = test system: HOP-62
HCT-15 = test system: HCT-15
MCF7 = test system: MCF7
RPMI-8226 = test system: RPMI-8226
MDA-N = test system: MDA-N
SNB-19 = test system: SNB-19
HOP-92 = test system: HOP-92
786-0 = test system: 786-0
U-251 = test system: U-251
OVCAR-8 = test system: OVCAR-8
NCI-H226 = test system: NCI-H226
NCI-H460 = test system: NCI-H460
SK-OV-3 = test system: SK-OV-3
RXF 393 = test system: RXF 393
MDA-MB-231 = test system: MDA-MB-231

O=C1O/C(=C(\Br)c2ccc([N+](=O)[O-])cc2)c2ccccc21
GI50 (SNB-75): > 78.3 µM (inactive) | GI50 (SK-MEL-28): > 100 µM (inactive) | GI50 (ACHN): > 100 µM (inactive) | GI50 (CAKI-1): > 100 µM (inactive) | GI50 (MDA-MB-435): 62.7 µM (inactive) | GI50 (HOP-62): > 80.9 µM (inactive) | GI50 (HCT-15): > 50.9 µM | GI50 (MCF7): 48.5 µM (inactive) | GI50 (RPMI-8226): 38.7 µM (inactive) | GI50 (MDA-N): > 66.2 µM (inactive) | GI50 (SNB-19): > 100 µM (inactive) | GI50 (HOP-92): > 100 µM (inactive) | GI50 (786-0): > 54.6 µM (inactive) | GI50 (U-251): 73.3 µM (inactive) | GI50 (OVCAR-8): > 76.6 µM (inactive) | GI50 (NCI-H226): > 100 µM (inactive) | GI50 (NCI-H460): > 100 µM (inactive) | GI50 (SK-OV-3): > 100 µM (inactive) | GI50 (RXF 393): > 100 µM (inactive)

CC1Nc2ccccc2NC1C=C(C#N)C#N (stereo unspecified)
GI50 (SNB-75): 14.6 µM (inactive) | GI50 (SK-MEL-28): 16.6 µM (inactive) | GI50 (ACHN): 18.3 µM (inactive) | GI50 (CAKI-1): 14.1 µM (inactive) | GI50 (HOP-62): 20.4 µM (inactive) | GI50 (HCT-15): 17.4 µM | GI50 (RPMI-8226): 4.58 µM (inactive) | GI50 (SNB-19): 17.9 µM (inactive) | GI50 (HOP-92): 15.1 µM (inactive) | GI50 (786-0): 16 µM (inactive) | GI50 (U-251): 16.1 µM (inactive) | GI50 (OVCAR-8): 7.76 µM (inactive) | GI50 (NCI-H226): 17.3 µM (inactive) | GI50 (NCI-H460): 19.4 µM (inactive) | GI50 (SK-OV-3): 21.8 µM (inactive) | GI50 (RXF 393): 16.6 µM (inactive)

O=C(/C=C/c1ccccc1F)c1ccc(Cl)c(Cl)c1
GI50 (SNB-75): 39.3 µM (inactive) | GI50 (SK-MEL-28): > 53.1 µM (inactive) | GI50 (ACHN): > 88.1 µM (inactive) | GI50 (CAKI-1): 38.8 µM (inactive) | GI50 (HOP-62): > 100 µM (inactive) | GI50 (HCT-15): 37.1 µM | GI50 (RPMI-8226): 27.7 µM (inactive) | GI50 (SNB-19): > 58.6 µM (inactive) | GI50 (HOP-92): > 100 µM (inactive) | GI50 (786-0): 17.3 µM (inactive) | GI50 (U-251): > 10 µM (inactive) | GI50 (OVCAR-8): 33 µM (inactive) | GI50 (NCI-H226): > 100 µM (inactive) | GI50 (NCI-H460): > 71.1 µM (inactive) | GI50 (SK-OV-3): > 100 µM (inactive) | GI50 (RXF 393): 21.9 µM (inactive)

O=C1CC(c2ccc([N+](=O)[O-])cc2)C2(C(=O)NC(=S)NC2=O)C(c2ccc([N+](=O)[O-])cc2)C1 (stereo unspecified)
GI50 (SNB-75): > 100 µM (inactive) | GI50 (SK-MEL-28): 40.7 µM (inactive) | GI50 (ACHN): 20.1 µM (inactive) | GI50 (MDA-MB-435): 15 µM (inactive) | GI50 (HOP-62): 23.8 µM (inactive) | GI50 (HCT-15): 18.9 µM | GI50 (MCF7): 21.4 µM (inactive) | GI50 (MDA-MB-231): 13.6 µM (inactive) | GI50 (RPMI-8226): 42.9 µM (inactive) | GI50 (MDA-N): 31.4 µM (inactive) | GI50 (SNB-19): 17.5 µM (inactive) | GI50 (HOP-92): 26.9 µM (inactive) | GI50 (786-0): 27.7 µM (inactive) | GI50 (U-251): 18.7 µM (inactive) | GI50 (OVCAR-8): 19.3 µM (inactive) | GI50 (NCI-H226): 15.7 µM (inactive) | GI50 (NCI-H460): 21.8 µM (inactive) | GI50 (SK-OV-3): 35.9 µM (inactive)

CC1(C)S[C@@H]2[C@H](NC(=O)/C=C/c3ccccc3)C(=O)N2[C@H]1C(=O)O
GI50 (SNB-75): 47.9 µM (inactive) | GI50 (SK-MEL-28): 69.5 µM (inactive) | GI50 (ACHN): > 100 µM (inactive) | GI50 (CAKI-1): > 100 µM (inactive) | GI50 (MDA-MB-435): > 100 µM (inactive) | GI50 (HOP-62): > 100 µM (inactive) | GI50 (HCT-15): > 100 µM | GI50 (MCF7): > 100 µM (inactive) | GI50 (MDA-MB-231): > 100 µM (inactive) | GI50 (RPMI-8226): > 100 µM (inactive) | GI50 (MDA-N): > 100 µM (inactive) | GI50 (SNB-19): > 100 µM (inactive) | GI50 (HOP-92): > 100 µM (inactive) | GI50 (786-0): > 100 µM (inactive) | GI50 (U-251): > 100 µM (inactive) | GI50 (OVCAR-8): > 100 µM (inactive) | GI50 (NCI-H226): > 100 µM (inactive) | GI50 (NCI-H460): > 100 µM (inactive) | GI50 (SK-OV-3): > 100 µM (inactive)

COc1cc2c3c(c4cc(OC)c(OC)cc4c2cc1OC)[C@H](O)[C@@H]1CCCN1C3
GI50 (SNB-75): < 0.0312 µM (active) | GI50 (SK-MEL-28): < 0.0284 µM (active) | GI50 (ACHN): < 0.0157 µM (active) | GI50 (CAKI-1): < 0.0324 µM (active) | GI50 (MDA-MB-435): < 0.0265 µM (active) | GI50 (HOP-62): < 0.0198 µM (active) | GI50 (HCT-15): < 0.0239 µM | GI50 (MCF7): < 0.0173 µM (active) | GI50 (MDA-MB-231): < 0.0342 µM (active) | GI50 (RPMI-8226): < 0.0253 µM (active) | GI50 (MDA-N): < 0.0363 µM (active) | GI50 (SNB-19): 0.0276 µM (active) | GI50 (HOP-92): < 0.0478 µM (active) | GI50 (786-0): < 0.0321 µM (active) | GI50 (U-251): < 0.0245 µM (active) | GI50 (OVCAR-8): < 0.0308 µM (active) | GI50 (NCI-H226): 0.0494 µM (active) | GI50 (NCI-H460): < 0.0226 µM (active) | GI50 (SK-OV-3): < 0.0237 µM (active)

CC1(C)C(=O)N=C(N)N1C(=O)OCc1ccccc1
GI50 (SNB-75): > 100 µM (inactive) | GI50 (SK-MEL-28): > 100 µM (inactive) | GI50 (ACHN): > 100 µM (inactive) | GI50 (CAKI-1): > 100 µM (inactive) | GI50 (MDA-MB-435): > 100 µM (inactive) | GI50 (HOP-62): > 100 µM (inactive) | GI50 (HCT-15): > 100 µM | GI50 (MCF7): > 100 µM (inactive) | GI50 (MDA-MB-231): > 100 µM (inactive) | GI50 (RPMI-8226): > 100 µM (inactive) | GI50 (MDA-N): > 100 µM (inactive) | GI50 (SNB-19): > 100 µM (inactive) | GI50 (HOP-92): > 100 µM (inactive) | GI50 (786-0): > 100 µM (inactive) | GI50 (U-251): > 100 µM (inactive) | GI50 (OVCAR-8): > 100 µM (inactive) | GI50 (NCI-H226): > 100 µM (inactive) | GI50 (NCI-H460): > 100 µM (inactive) | GI50 (SK-OV-3): > 100 µM (inactive)

From ChEMBL document CHEMBL1201862, “PubChem BioAssay data set” (2004)
